Laboratory results: patent US12661410B2, “Compounds for targeted degradation of RET” (C4 Therapeutics, Inc., priority 2020, dated 2026)
Changes are numbered by the printed parent chain.

Experiments:
[1] = biological target: T1, RET (658-1114) (Homo sapiens, UniProt P07949); assay: HiBiT-Degradation, RET wild-type degradation assay (Nano-Glo HiBiT Lytic), 293T.144 cells; format: cell-based; conditions: for Emax / DC50: 6.0 hours; for Emax: % remaining protein, read-out: 293T.144 RET (658-1114) 6.0 hours (Emax); for DC50: half-maximal degradation concentration, read-out: 293T.144 RET (658-1114) 6.0 hours (DC50)
T1 construct: 658-1114; expressed in transfected cells; host or cells: 293T.144 (293T cells, generated in-house)
T1 sequence (P07949 658-1114): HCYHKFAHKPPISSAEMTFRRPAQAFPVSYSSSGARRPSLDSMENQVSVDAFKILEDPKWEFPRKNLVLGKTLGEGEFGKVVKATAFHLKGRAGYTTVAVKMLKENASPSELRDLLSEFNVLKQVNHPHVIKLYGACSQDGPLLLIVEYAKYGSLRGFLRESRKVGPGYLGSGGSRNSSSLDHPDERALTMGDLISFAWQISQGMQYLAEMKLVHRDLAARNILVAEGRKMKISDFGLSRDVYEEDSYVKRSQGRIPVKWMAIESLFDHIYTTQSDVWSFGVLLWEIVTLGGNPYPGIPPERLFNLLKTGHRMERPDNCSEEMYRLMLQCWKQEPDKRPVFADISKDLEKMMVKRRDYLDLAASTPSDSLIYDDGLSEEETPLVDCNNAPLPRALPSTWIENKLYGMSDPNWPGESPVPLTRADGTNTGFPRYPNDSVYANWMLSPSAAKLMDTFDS
In short: (§1)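 6 h treatment, 293T.144 (WT) / 293T.165 (G810R) cells ectopically expressing HiBiT-fused RET KD; 11-pt half-log dilution, top 10 μM, n=2. Nano-Glo HiBiT lytic detection, luminescence. Output: DC50, Emax (% protein remaining).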

[2] = biological target: T2, RET(KD: 658-1114 G810R) (Homo sapiens, UniProt P07949, G810R); assay: HiBiT-Degradation, RET G810R degradation assay (Nano-Glo HiBiT Lytic), 293T.165 cells; format: cell-based; conditions: for Emax / DC50: 6.0 hours; for Emax: % remaining protein, read-out: 293T.165 RET(KD: 658-1114 G810R) 6.0 hours (Emax); for DC50: half-maximal degradation concentration, read-out: 293T.165 RET(KD: 658-1114 G810R) 6.0 hours (DC50)
T2 construct: 658-1114; expressed in transfected cells; host or cells: 293T.165 (293T cells, generated in-house)
T2 sequence (P07949 658-1114 G810R): T1 sequence (P07949 658-1114) with G153R
In short: as §1

293T.144 RET (658-1114) 6.0 hours (IP) [nM] [1]	Emax [1] [%]	DC50 [1] [nM]	293T.165 RET(KD: 658-1114 G810R) 6.0 hours (IP) [nM] [2]	Emax [2] [%]	DC50 [2] [nM]	Structure (SMILES)
++++ (<50 nM = ++++)	< 30	< 50	++++ (<50 nM = ++++)	< 30	< 100	CCC1(C(=O)Nc2ccc(F)cc2)CCN(c2ccc(-c3nc(-c4cnn(C5CCN(C(=O)CC6(O)CCN(c7ccc(NC8CCC(=O)NC8=O)cc7Cl)CC6)CC5)c4)cn4ncc(C#N)c34)cn2)CC1 (stereo not drawn) [Compound 100, 1-[5-[6-[1-[1-[2-[1-[2-chloro-4-[(2,6-dioxo-3-piperidyl)amino]phenyl]-4-hydroxy-4-piperidyl]acetyl]-4-piperidyl]pyrazol-4-yl]-3-cyano-pyrazolo[1,5-a]pyrazin-4-yl]-2-pyridyl]-4-ethyl-N-(4-fluorophenyl)piperidine-4-carboxamide]
++++ (<50 nM = ++++)	< 30	< 50	++++ (<50 nM = ++++)	< 30	< 50	CCC1(C(=O)Nc2ccc(F)cc2)CCN(c2ccc(-c3nc(-c4cnn(C5CCN(C(=O)CC6(O)CCN(c7ccc(NC8CCC(=O)NC8=O)cc7F)CC6)CC5)c4)cn4ncc(C#N)c34)cn2)CC1 (stereo not drawn) [Compound 101, 1-[5-[3-cyano-6-[1-[1-[2-[1-[4-[(2,6-dioxo-3-piperidyl)amino]-2-fluoro-phenyl]-4-hydroxy-4-piperidyl]acetyl]-4-piperidyl]pyrazol-4-yl]pyrazolo[1,5-a]pyrazin-4-yl]-2-pyridyl]-4-ethyl-N-(4-fluorophenyl)piperidine-4-carboxamide]
++++ (<50 nM = ++++)	< 30	< 50	++++ (<50 nM = ++++)	< 30	< 50	CCC1(C(=O)NC(C)(C)C)CCN(c2ccc(-c3nc(-c4cnn(C5CCN(C(=O)CC6(O)CCN(c7ccc(NC8CCC(=O)NC8=O)cc7F)CC6)CC5)c4)cn4ncc(C#N)c34)cn2)CC1 (stereo not drawn) [Compound 103, N-tert-butyl-1-[5-[3-cyano-6-[1-[1-[2-[1-[4-[(2,6-dioxo-3-piperidyl)amino]-2-fluoro-phenyl]-4-hydroxy-4-piperidyl]acetyl]-4-piperidyl]pyrazol-4-yl]pyrazolo[1,5-a]pyrazin-4-yl]-2-pyridyl]-4-ethyl-piperidine-4-carboxamide]
++++ (<50 nM = ++++)	< 30	< 50	++++ (<50 nM = ++++)	< 50	< 50	CCC1(c2ncccn2)CCN(c2ccc(-c3nc(-c4cnn(C5CCN(C(=O)CC6(O)CCN(c7ccc(NC8CCC(=O)NC8=O)cc7F)CC6)CC5)c4)cn4ncc(C#N)c34)cn2)CC1 (stereo not drawn) [Compound 105, 6-[1-[1-[2-[1-[4-[(2,6-dioxo-3-piperidyl)amino]-2-fluoro-phenyl]-4-hydroxy-4-piperidyl]acetyl]-4-piperidyl]pyrazol-4-yl]-4-[6-(4-ethyl-4-pyrimidin-2-yl-1-piperidyl)-3-pyridyl]pyrazolo[1,5-a]pyrazine-3-carbonitrile]
++++ (<50 nM = ++++)	< 30	< 50	++++ (<50 nM = ++++)	< 50	< 100	N#Cc1cnn2cc(-c3cnn(C4CCN(C(=O)CC5(O)CCN(c6ccc(NC7CCC(=O)NC7=O)cc6F)CC5)CC4)c3)nc(-c3ccc(N4CCN(C(=O)c5cccnc5)CC4)nc3)c12 (stereo not drawn) [Compound 106, 6-[1-[1-[2-[1-[4-[(2,6-dioxo-3-piperidyl)amino]-2-fluoro-phenyl]-4-hydroxy-4-piperidyl]acetyl]-4-piperidyl]pyrazol-4-yl]-4-[6-[4-(pyridine-3-carbonyl)piperazin-1-yl]-3-pyridyl]pyrazolo[1,5-a]pyrazine-3-carbonitrile]

More lines, now with the values behind:

Structure (SMILES)	293T.144 RET (658-1114) 6.0 hours (IP) [nM] [1]	Emax [1] [%]	DC50 [1] [nM]	293T.165 RET(KD: 658-1114 G810R) 6.0 hours (IP) [nM] [2]	Emax [2] [%]	DC50 [2] [nM]
CCC1(C(=O)NC(C)C)CCN(c2ccc(-c3nc(-c4cnn(C5CCN(C(=O)CC6(O)CC7(CN(c8ccc(NC9CCC(=O)NC9=O)cc8F)C7)C6)CC5)c4)cn4ncc(C#N)c34)cn2)CC1 (stereo not drawn) [Compound 97, 1-[5-[3-cyano-6-[1-[1-[2-[2-[4-[(2,6-dioxo-3-piperidyl)amino]-2-fluoro-phenyl]-6-hydroxy-2-azaspiro[3.3]heptan-6-yl]acetyl]-4-piperidyl]pyrazol-4-yl]pyrazolo[1,5-a]pyrazin-4-yl]-2-pyridyl]-4-ethyl-N-isopropyl-piperidine-4-carboxamide]	++++ (<50 nM = ++++)	< 30	< 50	++++ (<50 nM = ++++)	< 50	< 100
CCC1(C(=O)Nc2ccccc2)CCN(c2ccc(-c3nc(-c4cnn(C5CCN(C(=O)CC6(O)CCN(c7ccc(NC8CCC(=O)NC8=O)cc7Cl)CC6)CC5)c4)cn4ncc(C#N)c34)cn2)CC1 (stereo not drawn) [Compound 98, 1-[5-[6-[1-[1-[2-[1-[2-chloro-4-[(2,6-dioxo-3-piperidyl)amino]phenyl]-4-hydroxy-4-piperidyl]acetyl]-4-piperidyl]pyrazol-4-yl]-3-cyano-pyrazolo[1,5-a]pyrazin-4-yl]-2-pyridyl]-4-ethyl-N-phenyl-piperidine-4-carboxamide]	++++ (<50 nM = ++++)	< 30	< 50	++++ (<50 nM = ++++)	< 30	< 100
CCC1(C(=O)Nc2ccccc2)CCN(c2ccc(-c3nc(-c4cnn(C5CCN(C(=O)CC6(O)CCN(c7ccc(NC8CCC(=O)NC8=O)cc7F)CC6)CC5)c4)cn4ncc(C#N)c34)cn2)CC1 (stereo not drawn) [Compound 99, 1-[5-[3-cyano-6-[1-[1-[2-[1-[4-[(2,6-dioxo-3-piperidyl)amino]-2-fluoro-phenyl]-4-hydroxy-4-piperidyl]acetyl]-4-piperidyl]pyrazol-4-yl]pyrazolo[1,5-a]pyrazin-4-yl]-2-pyridyl]-4-ethyl-N-phenyl-piperidine-4-carboxamide]	++++ (<50 nM = ++++)	< 30	< 50	++++ (<50 nM = ++++)	< 30	< 50
CCC1(C(=O)NC(C)(C)C)CCN(c2ccc(-c3nc(-c4cnn(C5CCN(C(=O)CC6(O)CCN(c7ccc(NC8CCC(=O)NC8=O)cc7Cl)CC6)CC5)c4)cn4ncc(C#N)c34)cn2)CC1 (stereo not drawn) [Compound 102, N-tert-butyl-1-[5-[6-[1-[1-[2-[1-[2-chloro-4-[(2,6-dioxo-3-piperidyl)amino]phenyl]-4-hydroxy-4-piperidyl]acetyl]-4-piperidyl]pyrazol-4-yl]-3-cyano-pyrazolo[1,5-a]pyrazin-4-yl]-2-pyridyl]-4-ethyl-piperidine-4-carboxamide]	++++ (<50 nM = ++++)	< 30	< 50	++++ (<50 nM = ++++)	< 30	< 50
CC1(c2ncccn2)CCN(c2ccc(-c3nc(-c4cnn(C5CCN(C(=O)CC6(O)CCN(c7ccc(NC8CCC(=O)NC8=O)cc7F)CC6)CC5)c4)cn4ncc(C#N)c34)cn2)CC1 (stereo not drawn) [Compound 104, 6-[1-[1-[2-[1-[4-[(2,6-dioxo-3-piperidyl)amino]-2-fluoro-phenyl]-4-hydroxy-4-piperidyl]acetyl]-4-piperidyl]pyrazol-4-yl]-4-[6-(4-methyl-4-pyrimidin-2-yl-1-piperidyl)-3-pyridyl]pyrazolo[1,5-a]pyrazine-3-carbonitrile]	++++ (<50 nM = ++++)	< 30	< 50	++++ (<50 nM = ++++)	< 30	< 50
